Measured values reported in patent US8846704B2, “Thiopyrimidine-based compounds and uses thereof” (YM Biosciences Austraila Pty Ltd, priority 2007, dated 2014).

How the values were obtained:
human JAK2 = biological target: T1, human JAK2 (Homo sapiens, UniProt O60674); experiment: Alphascreen tyrosine kinase enzyme assay, JAK2 kinase domain; type: biochemical; conditions: read-out: JAK2 IC50_nM
T1 construct: The kinase domain of human JAK2 was amplified; GST (N); made in house; host or cells: Sf9 insect cells (baculovirus)
T1 sequence (O60674 849-1124 limits assumed): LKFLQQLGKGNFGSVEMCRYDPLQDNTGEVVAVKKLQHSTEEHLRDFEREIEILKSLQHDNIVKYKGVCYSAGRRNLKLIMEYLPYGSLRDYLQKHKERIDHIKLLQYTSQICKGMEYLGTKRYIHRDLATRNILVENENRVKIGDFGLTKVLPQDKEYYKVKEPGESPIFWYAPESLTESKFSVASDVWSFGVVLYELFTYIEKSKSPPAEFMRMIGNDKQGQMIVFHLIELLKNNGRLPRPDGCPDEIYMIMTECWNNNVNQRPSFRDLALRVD
Summary of the method: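 JAK2 kinase domain expressed in baculovirus/Sf9 and glutathione-affinity purified. Compounds (final […]) pre-incubated 20 min with enzyme in 10 mM HEPES pH 7.5, MgCl2, NaCl, vanadate, 0.1% Tween 20.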

human JAK3 = biological target: T2, human JAK3 (Homo sapiens, UniProt P52333); experiment: Alphascreen tyrosine kinase enzyme assay, JAK3 kinase domain; type: biochemical; conditions: read-out: JAK3 IC50_nM
T2 construct: The kinase domain of human JAK3 was amplified; GST (N); made in house; host or cells: Sf9 insect cells (baculovirus)
T2 sequence (P52333 822-1111 limits assumed): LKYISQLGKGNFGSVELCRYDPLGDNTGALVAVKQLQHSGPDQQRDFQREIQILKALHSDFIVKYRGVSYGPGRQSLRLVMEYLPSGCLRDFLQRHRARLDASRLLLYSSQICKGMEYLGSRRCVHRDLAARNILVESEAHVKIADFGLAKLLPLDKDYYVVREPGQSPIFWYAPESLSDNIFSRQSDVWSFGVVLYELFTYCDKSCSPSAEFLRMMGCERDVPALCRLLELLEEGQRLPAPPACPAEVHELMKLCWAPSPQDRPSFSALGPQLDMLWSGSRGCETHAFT
Summary of the method: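 GST-affinity-purified human JAK3 kinase domain (baculovirus/Sf9) was pre-incubated 20 min with compound ([…]) in HEPES pH 7.5 buffer with MgCl2, vanadate and Tween 20. Biotinylated peptide substrate ([…]) and ATP were then added; phosphotyrosine was detected by AlphaScreen PY100 acceptor and streptavidin donor beads after 2–3 h.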

[1] = biological target: T3, BaF3 TELJAK2 cells (BafT_J2) (Homo sapiens, UniProt O60674); experiment: Cellular screening, BaF3 TEL:JAK2 cells, Alamar Blue; type: cell-based; conditions: 40 hr, read-out: BafT_J2 IC50_nM
T3 construct: fused on or other part: TEL (ETV6) N-terminal part, coding nucleotides 1-487, serves as the oligomerising partner; It is fused through a Sal I site to the JAK2 kinase domain and expressed from pTRE2 in BaF3 cells bearing pTET-off; P41212 (Transcription factor ETV6)
T3 sequence (O60674 whole entry, change not shown, the tested form may be a part): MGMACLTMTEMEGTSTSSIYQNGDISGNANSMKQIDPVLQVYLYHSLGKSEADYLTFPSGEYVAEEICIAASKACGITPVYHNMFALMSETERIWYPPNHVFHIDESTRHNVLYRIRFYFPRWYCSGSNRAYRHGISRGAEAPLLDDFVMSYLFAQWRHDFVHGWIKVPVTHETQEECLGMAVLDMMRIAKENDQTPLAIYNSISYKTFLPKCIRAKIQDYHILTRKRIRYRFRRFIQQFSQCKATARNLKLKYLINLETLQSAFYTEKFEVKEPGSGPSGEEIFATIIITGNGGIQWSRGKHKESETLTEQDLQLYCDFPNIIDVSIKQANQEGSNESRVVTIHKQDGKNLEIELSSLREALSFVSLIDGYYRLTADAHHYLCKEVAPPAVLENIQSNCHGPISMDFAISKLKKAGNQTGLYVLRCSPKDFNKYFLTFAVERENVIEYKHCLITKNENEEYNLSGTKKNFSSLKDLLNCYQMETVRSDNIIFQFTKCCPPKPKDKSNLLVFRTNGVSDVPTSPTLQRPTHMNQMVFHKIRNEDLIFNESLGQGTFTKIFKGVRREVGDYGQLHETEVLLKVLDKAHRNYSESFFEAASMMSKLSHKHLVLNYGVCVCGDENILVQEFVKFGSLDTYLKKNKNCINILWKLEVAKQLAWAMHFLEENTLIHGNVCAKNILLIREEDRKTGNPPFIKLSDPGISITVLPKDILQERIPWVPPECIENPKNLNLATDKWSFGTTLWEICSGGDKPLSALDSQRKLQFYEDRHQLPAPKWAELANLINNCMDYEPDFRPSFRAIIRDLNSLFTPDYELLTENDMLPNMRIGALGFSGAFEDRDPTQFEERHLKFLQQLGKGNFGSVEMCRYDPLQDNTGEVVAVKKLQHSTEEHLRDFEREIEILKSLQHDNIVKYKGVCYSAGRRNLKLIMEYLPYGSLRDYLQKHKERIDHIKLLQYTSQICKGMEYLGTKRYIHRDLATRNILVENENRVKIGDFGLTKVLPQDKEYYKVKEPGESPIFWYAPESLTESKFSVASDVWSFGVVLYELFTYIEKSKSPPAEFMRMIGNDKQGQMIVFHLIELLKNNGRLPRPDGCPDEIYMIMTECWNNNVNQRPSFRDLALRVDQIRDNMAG
Method: For screening purposes, compounds were diluted in 96 well plates at a concentration of 20 μM. Plates were warmed at 37° C. for 30 minutes before the assay was performed.
The coding region encompassing nucleotides 1-487 of TEL was amplified by PCR using the oligonucleotides STEL (5′-GGAGGATCCTGATCTCTCTCGCTGTGAGAC-3′) [SEQ ID NO 14] and 3TEL (5′-AGGC GTCGACTTCTTCTTCATGGTTCTG-3′) [SEQ ID NO 15] and U937 mRNA as a template. A […] restriction site was incorporated into the STEL primer, and a Sal I restriction site was incorporated into the 3TEL primer. The regions encompassing the kinase domain of JAK2 (nucleotides 2994-3914; JAK2F 5′-ACGC GTCGACGGTGCCTTTGAAGACCGGGAT-3′ [SEQ ID NO 16]; JAK2R 5′-ATAGTTTAGCGGCCGCTCAGAATGAAGGTCATTT-3′) [SEQ ID NO 17] and JAK3 (nucleotides 2520-3469; JAK3F 5′-GAAGTCGACTATGCCTGCCAAGACCCCACGATCTT-3′) [SEQ ID NO 18] were generated by PCR using Taq DNA polymerase (Gibco/BRL) and […] as a template. A Sal I restriction site was incorporated into the forward primer of JAK2 and JAK3, a Not I site was incorporated into the JAK2 reverse primer and a Xba I site was added to the reverse primer of JAK3.
A TEL/Jak2 fusion was generated by digestion of the TELPCR product with BamH I/Sal I restriction enzymes, digestion of the JAK2 PCR product with Sal I/Not I restriction enzymes, followed by ligation and subcloning of the ligation product into the mammalian expression Vector pTRE 2 (Clontech), which was prepared by digestion with BamH I-Not I restriction enzymes, to give the TEL/Jak2 fusion plasmid pTELJAK2.
The growth factor dependant myelomonocytic cell line BaF3 bearing the pTET-off plasmid (Clontech) was transfected with either pTELJAK2 or pTELJAK3, and the transfected cells were selected for growth-factor independent cell growth. The BaF3 wild-type cells were cultured in DMEM containing 10% FCS, 10% WEHI 3B conditioned medium. The BaF3 TELJAK cells ([…]) were cultured in DMEM 10% Tet-System Approved FBS (without WEHI 3B conditioned medium).
Cell suspensions were prepared by harvesting cells from culture (the cells used in this test were in late log phase growth with high viability.) Cells were diluted in the appropriate growth medium, as described above, to 1.1× final concentration (from 50,000 cell/mL to 200,000 cell/mL, depending on cell line).
Compounds to be tested were added (10 μL, 10× final concentration) to a flat bottomed 96-well plate. The cellular suspension (90 μL per well) was then added, and the plate incubated for 40 hr at 37° C., 5% CO2. Alamar Blue 10 μL per well was added and the plates returned to the incubator for a further 4-6 hours. The plates were then read at 544 nm.

Compound: C=CC(=O)Nc1ccc(Sc2ccnc(Nc3ccc(N4CCN(C)CC4)cc3)n2)cc1 [Compound 238, N-(4-(2-(4-(4-methylpiperazin-1-yl)phenylao)pyrimidin-4-ylthio)phenyl)acrylamide]
- IC50 (human JAK2): > 1000 nM
- IC50 (human JAK3): < 100 nM
- GI50 [1]: < 5000 nM

Compound: CC#CC(=O)Nc1cccc(Sc2ccnc(Nc3cccc(N4CCOCC4)c3)n2)c1 [Compound 232, N-(3-(2-(3-morpholinophenylao)pyrimidin-4-ylthio)phenyl)but-2-ynamide]
- IC50 (human JAK2): > 1000 nM
- IC50 (human JAK3): < 100 nM
- GI50 [1]: < 20000 nM

Compound: Cc1cnc(Nc2ccc(N3CCOCC3)cc2)nc1Sc1ccc(N)nc1 [Compound 262, 4-(6-aopyridin-3-ylthio)-5-methyl-N-(4-morpholinophenyl)pyrimidin-2-ae]
- IC50 (human JAK2): < 500 nM
- IC50 (human JAK3): < 500 nM
- GI50 [1]: < 20000 nM

Compound: O=C(/C=C\Cl)Nc1ccc(Sc2ccnc(Nc3ccc(N4CCOCC4)cc3)n2)cc1 [Compound 346, (Z)-3-chloro-N-(4-(2-(4-morpholinophenylao)pyrimidin-4-ylthio)phenyl)acrylamide]
- IC50 (human JAK2): > 1000 nM
- IC50 (human JAK3): < 100 nM
- GI50 [1]: < 1000 nM

Compound: CNC(=O)/C=C\C(=O)Nc1ccc(Sc2nc(Nc3ccc(N4CCOCC4)cc3)ncc2C)cc1 [Compound 389, N1-methyl-N4-(4-(5-methyl-2-(4-morpholinophenylao)pyrimidin-4-ylthio)phenyl)maleamide]
- IC50 (human JAK2): > 1000 nM
- IC50 (human JAK3): < 100 nM
- GI50 [1]: < 20000 nM

Compound: OCc1cccc(Sc2ccnc(Nc3ccc(N4CCOCC4)cc3)n2)c1 [Compound 62, (3-(2-(4-Morpholinophenylamino)pyrimidin-4-ylthio)phenyl)methanol]
- IC50 (human JAK2): < 500 nM
- IC50 (human JAK3): < 500 nM
- GI50 [1]: < 20000 nM

Compound: CC#CC(=O)Nc1ccc(Sc2ccnc(Nc3cccc(N4CCOCC4)c3)n2)cc1 [Compound 233, N-(4-(2-(3-morpholinophenylao)pyrimidin-4-ylthio)phenyl)but-2-ynamide]
- IC50 (human JAK2): > 1000 nM
- IC50 (human JAK3): < 100 nM
- GI50 [1]: < 5000 nM

Compound: Cc1cnc(Nc2cccc(O)c2)nc1Sc1ccc(NC(=O)CCl)cc1 [Compound 194, 2-chloro-N-(4-(2-(3-hydroxyphenylao)-5-methylpyrimidin-4-ylthio)phenyl)acetamide]
- IC50 (human JAK2): > 1000 nM
- IC50 (human JAK3): < 100 nM
- GI50 [1]: < 5000 nM

Compound: Cc1cnc(Nc2ccc(O)cc2)nc1Sc1ccc(NC(=O)CCl)cc1 [Compound 193, 2-chloro-N-(4-(2-(4-hydroxyphenylao)-5-methylpyrimidin-4-ylthio)phenyl)acetamide]
- IC50 (human JAK2): > 1000 nM
- IC50 (human JAK3): < 100 nM
- GI50 [1]: < 5000 nM

Compound: CC#CC(=O)Nc1cccc(Nc2nccc(SC)n2)c1 [Compound 8, N-(3-(4-(methylthio)pyrimidin-2-ylao)phenyl)but-2-ynamide]
- IC50 (human JAK2): > 1000 nM
- IC50 (human JAK3): < 100 nM
- GI50 [1]: < 5000 nM

Compound: COc1ccc(Nc2ncc(C)c(Sc3ccc(N)cc3)n2)cc1OC [Compound 240, 4-(4-aophenylthio)-N-(3,4-dimethoxyphenyl)-5-methylpyrimidin-2-ae]
- IC50 (human JAK2): > 1000 nM
- IC50 (human JAK3): < 500 nM
- GI50 [1]: < 5000 nM

Compound: C=CC(=O)Nc1ccc(Sc2nc(Nc3ccc(N4CCOCC4)cc3)ncc2C)cc1CC [Compound 260, N-(2-ethyl-4-(5-methyl-2-(4-morpholinophenylao)pyrimidin-4-ylthio)phenyl)acrylamide]
- IC50 (human JAK2): > 1000 nM
- IC50 (human JAK3): < 100 nM
- GI50 [1]: > 20000 nM

Compound: Nc1ccc(Sc2nc(Nc3ccc(N4CCOCC4)cc3)ncc2F)cc1 [Compound 263, 4-(4-aophenylthio)-5-fluoro-N-(4-morpholinophenyl)pyrimidin-2-ae]
- IC50 (human JAK2): > 1000 nM
- IC50 (human JAK3): < 500 nM
- GI50 [1]: < 5000 nM

Compound: C=CC(=O)Nc1cccc(Nc2nccc(Sc3ccccn3)n2)c1 [Compound 2, N-(3-(4-(pyridin-2-ylthio)pyrimidin-2-ylamino)phenyl)acrylamide]
- IC50 (human JAK2): > 1000 nM
- IC50 (human JAK3): < 100 nM
- GI50 [1]: < 5000 nM

Compound: C=CC(=O)Nc1ccc(Sc2nc(Nc3ccc(N4CCC(O)C4)cc3)ncc2C)cc1 (stereo not drawn) [Compound 295, N-(4-(2-(4-(3-hydroxypyrrolidin-1-yl)phenylao)-5-methylpyrimidin-4-ylthio)phenyl)acrylamide]
- IC50 (human JAK2): > 1000 nM
- IC50 (human JAK3): < 100 nM
- GI50 [1]: > 20000 nM

Compound: c1cc(Sc2ccc(Cn3cnnn3)cc2)nc(Nc2ccc(N3CCOCC3)cc2)n1 [Compound 109, 4-(4-((1H-tetrazol-1-yl)methyl)phenylthio)-N-(4-morpholinophenyl)pyrimidin-2-ae]
- IC50 (human JAK2): < 1000 nM
- IC50 (human JAK3): < 500 nM
- GI50 [1]: < 20000 nM

Compound: C=CC(=O)Nc1ccc(Sc2nc(Nc3cccc(OC)c3)ncc2C)cc1 [Compound 235, N-(4-(2-(3-methoxyphenylao)-5-methylpyrimidin-4-ylthio)phenyl)acrylamide]
- IC50 (human JAK2): > 1000 nM
- IC50 (human JAK3): < 100 nM
- GI50 [1]: < 20000 nM

Compound: N#Cc1nnnn1Cc1ccc(Sc2ccnc(Nc3ccc(N4CCOCC4)cc3)n2)cc1 [Compound 155, 1-(4-(2-(4-morpholinophenylao)pyrimidin-4-ylthio)benzyl)-1H-tetrazole-5-carbonitrile]
- IC50 (human JAK2): > 1000 nM
- IC50 (human JAK3): < 100 nM
- GI50 [1]: < 20000 nM

Compound: C=CC(=O)Nc1ccc(Sc2nc(Nc3ccc(N4CCOCC4)cc3)ncc2C)c(C)c1 [Compound 163, N-(3-methyl-4-(5-methyl-2-(4-morpholinophenylao)pyrimidin-4-ylthio)phenyl)acrylamide]
- IC50 (human JAK2): > 1000 nM
- IC50 (human JAK3): < 100 nM
- GI50 [1]: > 20000 nM

Compound: C=CC(=O)Nc1ccc(Sc2nc(Nc3cccc(NS(C)(=O)=O)c3)ncc2C)cc1 [Compound 288, N-(4-(5-methyl-2-(3-(methylsulfonamido)phenylao)pyrimidin-4-ylthio)phenyl)acrylamide]
- IC50 (human JAK2): > 1000 nM
- IC50 (human JAK3): < 100 nM
- GI50 [1]: < 20000 nM

Compound: C=CC(=O)Nc1cccc(Nc2nccc(Sc3ccccc3)n2)c1 [Compound 16, N-(3-(4-(phenylthio)pyrimidin-2-ylamino)phenyl)acrylamide]
- IC50 (human JAK2): > 1000 nM
- IC50 (human JAK3): < 100 nM
- GI50 [1]: < 5000 nM

Compound: C=CC(=O)Nc1ccc(Sc2nc(Nc3cccc(N4CCOCC4)c3)ncc2C)cc1 [Compound 237, N-(4-(5-methyl-2-(3-morpholinophenylao)pyrimidin-4-ylthio)phenyl)acrylamide]
- IC50 (human JAK2): > 1000 nM
- IC50 (human JAK3): < 100 nM
- GI50 [1]: < 5000 nM

Compound: C=CC(=O)NCc1ccc(Sc2ccnc(Nc3ccc(N4CCOCC4)cc3)n2)cc1 [Compound 111, N-(4-(2-(4-morpholinophenylamino)pyrimidin-4-ylthio)benzyl)acrylamide]
- IC50 (human JAK2): > 1000 nM
- IC50 (human JAK3): < 100 nM
- GI50 [1]: < 20000 nM

Compound: C=CC(=O)Nc1cccc(Sc2ccnc(Nc3ccc(N4CCOCC4)cc3)n2)c1 [Compound 23, N-(3-(2-(4-morpholinophenylamino)pyrimidin-4-ylthio)phenyl)acrylamide]
- IC50 (human JAK2): > 1000 nM
- IC50 (human JAK3): < 100 nM
- GI50 [1]: < 20000 nM

Compound: C=CC(=O)N(C)c1ccc(Sc2nc(Nc3ccc(N4CCOCC4)cc3)ncc2C)cc1 [Compound 173, N-methyl-N-(4-(5-methyl-2-(4-morpholinophenylao)pyrimidin-4-ylthio)phenyl)acrylamide]
- IC50 (human JAK2): < 500 nM
- IC50 (human JAK3): < 100 nM
- GI50 [1]: < 20000 nM
